Assay results: US7196083B2, “Heteropolycyclic inhibitors of protein kinases” (priority 2000, dated 2007)
Like-named read-outs stand apart in the source and are kept apart here.

How the values were obtained:
[1] = molecular target: PKB, full-length recombinant bovine protein, alpha form (Bos taurus, UniProt Q01314); test: PKB inhibition in vitro enzyme assay (radioactive phosphate incorporation, scintillation counting); assay type: biochemical; conditions: for IC50: PKB in vitro enzyme assay, 15 min at room temperature
PKB, full-length recombinant bovine protein, alpha form, sequence (Q01314 whole entry): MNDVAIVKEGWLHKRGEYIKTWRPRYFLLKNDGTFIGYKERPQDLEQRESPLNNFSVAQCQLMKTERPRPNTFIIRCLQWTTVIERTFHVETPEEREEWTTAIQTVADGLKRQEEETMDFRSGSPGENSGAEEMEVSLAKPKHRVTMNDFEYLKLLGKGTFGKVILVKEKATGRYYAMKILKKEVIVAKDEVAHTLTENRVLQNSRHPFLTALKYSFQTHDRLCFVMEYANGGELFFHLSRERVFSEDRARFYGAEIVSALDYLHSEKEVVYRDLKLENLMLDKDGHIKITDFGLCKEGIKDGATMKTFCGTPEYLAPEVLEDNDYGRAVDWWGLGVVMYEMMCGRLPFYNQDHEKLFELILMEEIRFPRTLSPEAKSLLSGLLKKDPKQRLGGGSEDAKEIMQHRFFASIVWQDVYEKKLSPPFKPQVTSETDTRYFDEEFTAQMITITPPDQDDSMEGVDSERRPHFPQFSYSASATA

[2] = test system: A-549 (human lung carcinoma); test: [3H] thymidine uptake cell proliferation assay, A549; assay type: cell-based; conditions: A459 cells, read-out: Cell Proliferation in A459 IC50 in nm
U-87 (human glioma) = test: [3H] thymidine uptake cell proliferation assay, U87; assay type: cell-based
Method: Compounds were added to culture at mid-logarithmic growth and incubated for 20 hours. (N=8 for the values+standard errors). […] Cell lines A-549 (human lung carcinoma), B16-F1 (murine melanoma), B16-F10 (murine melanoma), DU-145 (human […] carcinoma), LS-180 (human colon carcinoma), PC3 (human prostate carcinoma), SKOV-3 (human ovarian carcinoma), U-87 (human glioma), and NIH-3T3 (murine embryonic fibroblasts) were all cultured in DMEM supplemented with 10% fetal bovine serum. M3 murine melanoma cells were cultured in DMEM/F12 1:1, and HT-29 human colon carcinoma and LL2 Lewis Lung […] lung carcinoma were cultured in RPMI1640. All the foregoing cell lines were obtained from ATCC. All cells were passaged regularly using 0.25% Trypsin-EDTA in order to maintain cells at exponential growth for various experiments. LS 180 cells were passaged without trypsin and were physically scraped off the culture flasks. In vitro [^3H] thymidine uptake assay. Proliferation can be measured by quantifying the amount of [^3H] thymidine uptake into cells using a β-counter, and therefore is a well-established diagnostic tool to measure DNA synthesis within the cells. […] The cells were allowed to adhere to the plates via incubation at 37° C. in 5% CO2 for 12–14 hours. […] Then, 10 μL of the compound was added to the pre-existing 90 μL per well, and incubated further at 37° C. in 5% CO2 for 20 hours. To measure thymidine incorporation, cells were fixed onto the culture wells by slowly adding ¼^th volume of cold 50% TCA into each well (25 μL to each well) and incubated for 1–2 hours at 4° C. Wells were washed 5 times with tap water to remove any free [^3H] thymidine in the media, and air-dried completely at room temperature. Then, 100 μL of scintillation fluid was added to each well and the activity counted using a Wallac Microbeta Counter.

[3] = test system: SKOV-3 (human ovarian carcinoma); test: [3H] thymidine uptake cell proliferation assay, SKOV3; assay type: cell-based; conditions: SK-OV-3, read-out: Cell Proliferation Effects (IC50 (nM))
B16-F1 (murine melanoma) = test: [3H] thymidine uptake cell proliferation assay, B16F1; assay type: cell-based; conditions: Mus musculus, read-out: Cell Proliferation Effects (IC50 (nM))
[4] = test system: PC3 (human prostate carcinoma); test: [3H] thymidine uptake cell proliferation assay, PC3; assay type: cell-based; conditions: PC-3, read-out: Cell Proliferation Effects (IC50 (nM))
[5] = test system: NIH-3T3 (murine embryonic fibroblasts); test: [3H] thymidine uptake cell proliferation assay, NIH3T3; assay type: cell-based; conditions: Mus musculus; NIH3T3, non-tumorigenic cell line; read-out: Cell Proliferation Effects (IC50 (nM))
[6] = test system: LL2 Lewis Lung human lung carcinoma; test: [3H] thymidine uptake cell proliferation assay, LL2; assay type: cell-based; conditions: LL/2, read-out: Cell Proliferation Effects (IC50 (nM))
[7] = test system: B16-F10 (murine melanoma); test: [3H] thymidine uptake cell proliferation assay, B16F10; assay type: cell-based; conditions: Mus musculus, read-out: Cell Proliferation Effects (IC50 (nM))
M3 murine melanoma cells = test: [3H] thymidine uptake cell proliferation assay, M3; assay type: cell-based; conditions: Mus musculus, read-out: Cell Proliferation Effects (IC50 (nM))
DU-145 (human carcinoma) = test: [3H] thymidine uptake cell proliferation assay, DU145; assay type: cell-based; conditions: read-out: Cell Proliferation Effects (IC50 (nM))
[8] = test system: HT-29 human colon carcinoma; test: [3H] thymidine uptake cell proliferation assay, HT29; assay type: cell-based; conditions: read-out: Cell Proliferation Effects (IC50 (nM))
[9] = for comparison; cited from earlier work
[10] = U87, read-out: Cell Proliferation IC50 in nm (starred: tested in U7 cells, not U87), read-out: Cell Proliferation IC50 in nm (starred: tested in U7 cells, not A459)

| IC50 [1] [µM] | IC50 [2] [µM] | Structure (SMILES) | also measured |
| --- | --- | --- | --- |
| > 100 | > 10 | O=C(O)c1ccc2nc3c(nc2c1)-c1ccccc1C3=O [KP-23172-002] |  |
| > 100 |  | O=C1c2ccccc2-c2nccnc21 [KP-23172-016] |  |
| > 100 |  | Cc1cc2nc3c(nc2cc1C)-c1ccccc1CC3 [KP-23172-013] |  |
| > 100 |  | O=c1c2ccccc2c2nc3c(=S)nc(S)c3nc12 [KP-23172-022] | IC50 (U-87 (human glioma); [10]): 5000 nM |
| > 100 | > 10 | O=C(c1ccccc1)c1ccc2nc3c(nc2c1)-c1ccccc1C3=O [KP-23172-003] |  |
| > 100 | > 10 | O=C1c2ccccc2-c2nc3c(O)nc(O)nc3nc21 [KP-23172-004] |  |
| > 100 | 0.5 | N#CC(=O)N/N=C1/c2ccccc2-c2nc3nnnn3nc21 [KP-23172-027] |  |
| > 100 | > 10 | Cc1ccc2nc3c(nc2c1)C(=O)c1ccccc1-3 [KP-23172-029] |  |
| > 100 |  | c1ccc2c(c1)CCc1nc3nnnn3nc1-2 [KP-23172-011] |  |
| > 100 |  | N#Cc1nc2c(nc1C#N)-c1ccccc1C2=O [KP-23172-019] | IC50 (U-87 (human glioma); [10]): > 10000 nM |
| > 100 |  | Cc1cc2nc3c(nc2cc1C)-c1ccccc1/C3=N\Nc1ccccc1 [KP-23172-017] |  |
| > 100 | > 10 | Cc1cc2nc3c(nc2cc1C)-c1ccccc1C3=O [KP-23172-007] |  |
| > 100 | > 10 | Cc1ccc2nc3c(nc2c1)-c1ccccc1C3=O [KP-23172-028] |  |
| > 100 | > 10 | O=C1c2ccccc2-c2nc3cc(Cl)c(Cl)cc3nc21 [KP-23172-006] |  |
| > 100 | > 10 | O=C1c2ccccc2-c2nc3c(nc21)CCCC3 [KP-23172-015] |  |
| > 100 | 0.5 | N/N=C1/c2ccccc2-c2nc3nnnn3nc21 [KP-23172-023] |  |

| IC50 [1] [µM] | IC50 [2] [µM] | Structure (SMILES) | also measured |
| --- | --- | --- | --- |
| > 100 | > 10 | Cn1c(=O)c2nc3c(nc2n(C)c1=O)C(=O)c1ccccc1-3 [KP-23172-005] |  |
| 15 | > 10 | O=C1c2ccccc2-c2nn3nnnc3nc21 [KP-17483] | IC50 [3]: 300 nM; PKB inhibition in in vitro enzyme assay (in words) [1]: found to inhibit PKB; IC50 (B16-F1 (murine melanoma)): 80 nM; IC50 [4]: 250 nM; IC50 [5]: 200 nM; IC50 [6]: 750 nM; IC50 [7]: 750 nM; IC50 (U-87 (human glioma); U-87 MG, U87, read-out: Cell Proliferation Effects (IC50 (nM))): 50 nM; IC50 (M3 murine melanoma cells): 30 nM; IC50 (DU-145 (human carcinoma)): 50 nM; IC50 [8]: 500 nM |
| > 100 | > 10 | O=C(O)c1nc2c(nc1C(=O)O)-c1ccccc1C2=O [KP-23172-021] |  |
| > 100 |  | O=C1c2ccccc2-c2nc3c4ccccc4c4ccccc4c3nc21 [KP-23172-31] |  |
| > 100 | > 10 | O=C1c2ccccc2-c2nc3c(O)cccc3nc21 [KP-23172-001] |  |
|  |  | Clc1ccc(COC(Cn2ccnc2)c2ccc(Cl)cc2Cl)c(Cl)c1 (centres unmarked) [miconazole] | 1:1 binding constant (reported in the literature) [9]: 363 |
| > 100 |  | c1ccc2c(c1)[nH]c1nn3nnnc3nc12 [KP-23172-018] | IC50 (U-87 (human glioma); [10]): > 10000 nM |
| > 100 | > 10 | c1ccc2c(c1)Cc1nn3nnnc3nc1-2 [KP-23172-008] |  |
| > 100 |  | Oc1ncnc2nc3c(nc12)CCc1ccccc1-3 [KP-23172-010] |  |
| > 100 | > 10 | O=C1c2ccccc2-c2nc3c(O)ncnc3nc21 [KP-23172-009] |  |
| > 100 |  | c1ccc(N/N=C2\C(=N/Nc3ccccc3)Nc3ccccc32)cc1 [KP-23172-025] |  |
| 20 | 0.046 | COc1ccc2c(c1)-c1nc3nnnn3nc1C2=O [KP-23172-030] |  |
| > 100 |  | Oc1cccc2nc3c(nc12)CCc1ccccc1-3 [KP-23172-012] |  |
| > 100 |  | O=C1c2ccccc2-c2nc3cc4ccccc4cc3nc21 [KP-23172-026] |  |
| > 100 | 0.1 | O=C1c2cc3ccccc3cc2-c2nc3nnnn3nc21 [KP-23172-020] |  |
| > 100 | > 10 | c1ccc(N/N=C2/c3ccccc3-c3nc4nnnn4nc32)cc1 [KP-23172-024] |  |
